{"source": "patent US5886026A", "about": "“Anti-angiogenic compositions and methods of use” (priority 1994, dated 1999)", "key": {"[1]": {"assay": "Encapsulation of paclitaxel or baccatin in ELVAX:poly-l-lactic acid microspheres", "format": "physicochemical", "settings": "for amount encapsulated: from 500 μg", "description": "Microspheres are then prepared in a dissolution machine (Six-spindle dissolution tester, VanderKanp, Van Kell Industries Inc., U.S.A.) in triplicate at 200 rpm, 42° C., for 3 hours. Microspheres so prepared are washed twice in water and sized on the microscope."}, "[2]": {"assay": "Release from ELVAX:poly-l-lactic acid microspheres, 18 hours tumbling at 37° C.", "format": "physicochemical"}, "neutrophils [3]": {"test_system": "neutrophils", "assay": "Neutrophil chemiluminescence in response to plasma opsonized CPPD or zymosan", "format": "cell-based, human", "description": "CPPD (triclinic) crystals were prepared. The size distribution of the crystals was approximately 33% less than 10 μm, 58% between 10 and 20 μm and 9% greater than 20 μm. Crystals prepared under the above conditions are pyrogen free and crystals produced under sterile, pyrogen free conditions produced the same magnitude of neutrophil response as crystals prepared under normal, non-sterile laboratory conditions.\n(§1) All experiments that studied neutrophil responses to crystals or zymosan in the presence of paclitaxel were performed using plasma opsonized CPPD or zymosan. Opsonization of crystals or zymosan was done with 50% heparinized plasma at a concentration of 75 mg of CPPD or 12 mg of zymosan per ml of 50% plasma. Crystals or zymosan were incubated with plasma for 30 min. at 37° C. and then washed in excess HBSS.\nAll chemiluminescence studies were performed at a cell concentration of 5,000,000 cells/ml in HBSS with CPPD (50 mg/ml). In all experiments 0.5 ml of cells was added to 25 mg of CPPD or 0.5 mg of zymosan in 1.5 ml capped Eppendorf tubes. 10 μl of luminol dissolved in 25% DMSO in HBSS was added to a final concentration of 1 μM and the samples were mixed to initiate neutrophil activation by the crystals or zymosan. Chemiluminescence was monitored using an LKB Luminometer (Model 1250.) at 37° C. with shaking immediately prior to measurements to resuspend the crystals or zymosan. Control tubes contained cells, drug and luminol (crystals absent)."}, "neutrophils [4]": {"test_system": "neutrophils", "assay": "Neutrophil superoxide anion generation", "format": "cell-based, human", "settings": "28 μM", "description": "as §1\nSuperoxide anion concentrations were measured using the superoxide dismutase inhibitable reduction of cytochrome c assay. Briefly, 25 mg of crystals or 0.5 mg of zymosan was placed in a 1.5 ml capped Eppendorf tube and warmed to 37° C. 0.5 ml of cells at 37° C. were added together with ferricytochrome c (final concentration 1.2 mg/ml) and the cells were activated by shaking the capped tubes. […] Control tubes were set up under the same conditions with the inclusion of superoxide dismutase at 600 units per ml."}, "neutrophils [5]": {"test_system": "neutrophils", "assay": "Neutrophil degranulation, myeloperoxidase release", "format": "cell-based, human", "settings": "28 μM, CPPD", "description": "as §1\n(§2) One and a half milliliter Eppendorf tubes containing either 25 mg of CPPD or 1 mg of zymosan were preheated to 37° C. 0.5 ml of cells at 37° C. were added followed by vigorous shaking to initiate the reactions.\nMyeloperoxidase (MPO) activity was measured by the increase in absorbance at 450 nm that accompanies the oxidation of dianisidine. 7.8 mg of dianisidine was dissolved in 100 ml of 0.1M citrate buffer, pH 5.5 at […] by sonication. To a 1 ml cuvette, 0.89 mL of the dianisidine solution was added, followed by 50 μl of 1% Triton×100, 10 μl of a 0.05% hydrogen peroxide in water solution and 50 μl of crystal-cell supernatant."}, "neutrophils [6]": {"test_system": "neutrophils", "assay": "Neutrophil degranulation, lysozyme release", "format": "cell-based, human", "settings": "28 μM, CPPD", "description": "as §1, §2\nBriefly, Micrococcuis lysodeikticzis was suspended at 0.1 mg/ml in 65 mM potassium phosphate buffer, pH 6.2 and the absorbance at 450 nm was adjusted to 0.7 units by dilution. The crystal (or zymosan) and cell supernatant (100 μl) was added to 2.5 ml of the Micrococcus suspension and the decrease in absorbance was monitored."}, "synoviocytes": {"test_system": "synoviocytes", "assay": "3H-Thymidine incorporation into synoviocytes", "format": "cell-based", "description": "At these times, […] of ^3 H-thymidine was added to the cell culture and incubated for 2 hours at 37° C. The cells were placed through a cell harvester, washed through a filter, the filters were cut, and the amount of radiation contained in the filter sections determined. Once the amount of thymidine incorporated into the cells was ascertained, it was used to determine the rate of cell proliferation. This experiment was repeated three times and the data collated together."}, "synovial fibroblasts": {"test_system": "synovial fibroblasts", "assay": "Synoviocyte proliferation (Trypan blue)", "format": "cell-based, bovine", "settings": "24 hours"}, "c-fos": {"test_system": "c-fos", "assay": "c-fos expression in chondrocytes (Northern blot)", "format": "cell-based, bovine", "settings": "10^-6 to 10^-8 M", "experimental": "Human recombinant TNFα was dissolved in phosphate buffered saline (PBS) with 0.1% bovine serum albumin (BSA). Total RNA from bovine articular chondrocytes was isolated by the acidified guanidine isothiocyanate method and the levels of c-fos mRNA determined by Northern blot analysis. Denatured RNA samples (12 μg) were analyzed by gel electrophoresis in a denaturing 1% agarose gel, transferred to a nylon membrane (Bio-Rad), cross-linked with an ultraviolet cross-linker (Stratagene UV stratalinker 1800), and hybridized with ^32 P-labeled rat c-fos DNA. mRNA for tubulin and total RNA were used as controls. To determine tubulin mRNA, the blots described above were subsequently stripped of DNA and re-probed with ^32 P-labeled rat P-tubulin cDNA. This experimented was conducted three times and the data collated."}, "collagenase": {"test_system": "collagenase", "assay": "IL-1 induced collagenase expression in chondrocytes (Northern blot)", "format": "cell-based, bovine", "settings": "10^-6 M", "description": "C-fos is an oncogene transcription factor shown to be involved and required for the induction of genes involved in cell proliferation and collagenase expression. […] When IL-1 is administered to chondrocytes in vitro there is a transient increase in fos mRNA levels which peak 30-60 minutes later, while collagenase mRNA is detected 9 hours later and continues to increase up to 12 hours (data not shown) after IL-1 stimulation. The fos and collagenase mRNA can be detected using the respective cDNA probes and analyzed by Northern blot analysis. This allows the determination of agents capable of inhibiting collagenase production and an approximation of the step in the collagenase synthetic pathway that is affected by the treatment.\nThe cells were then incubated for a further 16 hours. Total RNA from bovine articular chondrocytes was isolated by the acidified guanidine isothiocyanate method and the collagenase mRNA determined by Northern blot analysis. The RNA samples were prepared as described above using ^32 P-labeled rat collagenase cDNA."}, "normal chondrocytes": {"test_system": "normal chondrocytes", "assay": "Chondrocyte viability (Trypan blue)", "format": "cell-based", "settings": "72 hours"}, "in vitro": {"assay": "in vitro", "settings": "human, neutrophils", "experimental": "(§3) Neutrophils were prepared from freshly collected human citrated whole blood. Briefly, 400 ml of blood were mixed with 80 ml of 4% dextran T500 (Pharmacia LKB, Biotechnology AB Uppsala, Sweden) in HBSS and allowed to settle for 1 h. Plasma was collected continuously and 5 ml applied to 5 ml of Ficoll Paque (Pharmacia) in 15 ml polypropylene tubes (Coming, N.Y.). Following centrifugation at 500×g for 30 min, the neutrophil pellets were washed free of erythrocytes by 20 s of hypotonic shock. Neutrophils were resuspended in HBSS, kept on ice and used for experiments within 3 h. Neutrophil viability and purity was always greater than 90%.\n(§4) Cells were incubated for 20 minutes at 33° C. then for 10 minutes at 37° C. before addition to crystals or zymosan."}, "neutrophils [7]": {"test_system": "neutrophils", "assay": "Neutrophil viability (LDH release)", "settings": "46 μM, one hour, 37° C.", "experimental": "as §3, §4"}}, "data": [{"molecule": "CC(=O)O[C@H]1C(=O)[C@@]2(C)[C@H]([C@H](OC(=O)c3ccccc3)[C@]3(O)C[C@H](OC(=O)[C@H](O)[C@@H](NC(=O)c4ccccc4)c4ccccc4)C(C)=C1C3(C)C)[C@]1(OC(C)=O)CO[C@@H]1C[C@@H]2O", "note": "[paclitaxel]", "values": [{"measurement": "encapsulated, % by weight of the polymer", "setting": "[1]; fluorescence", "result": 1.5, "unit": "%"}, {"measurement": "encapsulated, % of original weight", "setting": "[1]; fluorescence", "result": 15, "unit": "%"}, {"measurement": "amount encapsulated", "setting": "[1]; fluorescence", "result": 75, "unit": "µg"}, {"measurement": "encapsulated, % by weight of the polymer", "setting": "[1]; uv/vis", "result": 1.2, "unit": "%"}, {"measurement": "encapsulated, % of original weight", "setting": "[1]; uv/vis", "result": 12, "unit": "%"}, {"measurement": "amount encapsulated", "setting": "[1]; uv/vis", "result": 58, "unit": "µg"}, {"measurement": "released from the microspheres", "setting": "[2]; fluorescence", "result": 6, "unit": "%"}, {"measurement": "released from the microspheres", "setting": "[2]; uv/vis", "result": 10.3, "unit": "%"}, {"measurement": "inhibition of chemiluminescence over time", "setting": "neutrophils [3]; 28 μM, CPPD and zymosan", "result": "significant at all times from 3 to 16 minutes"}, {"measurement": "effect on chemiluminescence of controls", "setting": "neutrophils [3]; all concentrations, no stimulus", "result": "no effect on the chemiluminescence values of controls"}, {"measurement": "neutrophil activation", "setting": "neutrophils [3]; crystal or particulate induced", "result": "strong inhibitor"}, {"measurement": "superoxide anion production", "setting": "neutrophils [4]; CPPD", "result": "decrease in the amount of superoxide generated at all times"}, {"measurement": "superoxide anion production", "setting": "neutrophils [4]; zymosan", "result": "less dramatic than the inhibition of CPPD activation but was significant at all times"}, {"measurement": "myeloperoxidase release", "setting": "neutrophils [5]", "result": "significantly inhibited CPPD induced myeloperoxidase release at all times"}, {"measurement": "lysozyme release", "setting": "neutrophils [6]", "result": "reduced lysozyme release"}, {"measurement": "minimal effective concentration", "setting": "synoviocytes; 6 or 24 hours, read-out: lowest concentration inhibiting 3H-thymidine incorporation", "result": "≤ 0.01", "unit": "µM"}, {"measurement": "inhibition of thymidine incorporation, high vs low concentrations", "setting": "synoviocytes; 6 hours", "result": "no significant difference"}, {"measurement": "inhibition of thymidine incorporation at low concentration", "setting": "synoviocytes; 24 hours, 10^-8 M", "result": "some of the effect was lost at lower concentrations of the drug (10^-8 M), but was still substantially lower than that seen in control animals"}, {"measurement": "toxicity to synovial fibroblasts", "setting": "synovial fibroblasts; 10^-6 M and 10^-5 M", "result": "toxic to the synovial fibroblasts in vitro"}, {"measurement": "cytotoxicity to proliferating synovial fibroblasts", "setting": "synovial fibroblasts", "result": "cytotoxic to proliferating synovial fibroblasts in a concentration dependent manner"}, {"measurement": "minimal effective concentration", "setting": "synovial fibroblasts; Bos taurus, Fibroblast, read-out: lowest concentration inhibiting proliferation", "result": "≤ 0.1", "unit": "µM"}, {"measurement": "total RNA and tubulin expression", "setting": "c-fos", "result": "similarly unaffected"}, {"measurement": "c-fos expression", "setting": "c-fos; TNF stimulated", "result": "does not alter c-fos expression at any concentration"}, {"measurement": "collagenase mRNA", "setting": "collagenase", "result": "not detectable above background"}, {"measurement": "inhibition of IL-1 induced collagenase expression", "setting": "collagenase", "result": "completely inhibited"}, {"measurement": "cytotoxicity to normal chondrocytes", "setting": "normal chondrocytes", "result": "no cytotoxicity to normal chondrocytes"}, {"measurement": "viability of normal chondrocytes", "setting": "normal chondrocytes; up to 10^-5 M", "result": "does not affect the viability of normal chondrocytes"}, {"measurement": "cytotoxicity at 1 h, 46 µM", "setting": "in vitro", "result": "< 5", "unit": "%"}, {"measurement": "cell death", "setting": "neutrophils [7]", "result": "did not cause cell death"}]}]}
